Test results taken from patent US12173018B2, “Penicillin-binding protein inhibitors” (priority 2018, dated 2024).
In brackets after ≈: the same amount, converted by molar mass. Where two headings read alike, the source gives them in different places.

Assays:
[1] = system: P. aeruginosa PAO1; assay: Broth microdilution MIC, P. aeruginosa PAO1; assay type: cell-based; details: Pseudomonas aeruginosa
Experimental: (§1) To determine the ability of test compounds to potentiate the inhibition of the growth of bacterial strains, classic cell based broth microdilution minimum inhibitory concentration (MIC) assays were employed. MIC assays are performed according to CLSI methods except where otherwise noted (CLSI, 2011 and CLSI, 2009). The reference type strain E. coli ATCC 25922, the wild-type parent strain E. coli AG100, the hyper-permeable E. coli 901C and E. coli D22 and the E. coli AG100A strain lacking the acrAB efflux pump encoding genes were used to determine the ability of the PBP inhibitors to penetrate the outer membrane of gram-negative bacteria and inhibit bacterial growth. […] The P. aeruginosa PAO1, P. aeruginosa ATCC 27853 and A. baumannii ATCC 19606, along with the hyper-permeable P. aeruginosa ATCC 35151 and an engineered efflux pump-compromised strain of P. aeruginosa (ΔmexAB-oprM) were used to determine the ability of PBP inhibitors to penetrate the outer membrane of P. aeruginosa and A. baumannii and assess antibacterial activity against these important gram-negative organisms.
(§2) Briefly, cryo-preserved bacterial cultures of challenge strains are streaked for isolation on appropriate agar medium, in this case Mueller Hinton II agar. Following incubation to allow growth of the colonies, plates are sealed with parafilm and stored refrigerated for up to two weeks. For preparation of assay inoculum and to ensure low variability, at least 5 colonies are picked from the agar plates with an inoculating loop and aseptically transferred to a culture tube containing 3 mL of Mueller-Hinton Broth (supplemented with divalent cations to required levels based on Manufacturers' certification). The broth culture is grown for 3-5 hours at 37° C. with shaking at 200 rpm. Meanwhile, 2-fold serial dilutions of test compounds are conducted in a 96 well plate with a final volume of 75 μL per well at 2-fold the final desired concentration. After the dilution plates are set up the growing cultures are then diluted in a cuvette containing MH II broth and the optical density is measured at 600 nm. The Inoculum is diluted such that 75 μL of this culture in Mueller-Hinton Broth results in a starting bacterial concentration of 5×10^5 CFU/mL when added to the dilution plates. The plates are incubated for 16-20 hours at 37° C. The MIC values are read visually as the lowest concentration well with no bacterial growth.

[2] = system: P. aeruginosa (ΔmexAB-oprM); assay: microbe, parasite or virus in culture; assay type: cell-based; details: Pseudomonas aeruginosa, read-out: MIC P. aeruginosa ΔmexAB-OprM
Method in brief: (§3)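 Colonies from Mueller Hinton II agar were grown 3-5 hours at 37° C in cation-supplemented broth, adjusted by OD600, then added to 2-fold compound dilutions at 5×10^5 CFU/mL. After 16-20 hours at 37° C, MICs were scored visually.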

[3] = system: P. aeruginosa ATCC 35151; assay: microbe, parasite or virus in culture; assay type: cell-based; details: Pseudomonas aeruginosa, ATCC35151; hyper-permeable P. aeruginosa ATCC 35151; read-out: MIC P. aeruginosa ATCC 35151
Method in brief: as §3

[4] = system: engineered strain of Escherichia coli harboring CTX-M15; assay: microbe, parasite or virus in culture; assay type: cell-based; details: Escherichia coli, read-out: Microbiological Activity (MIC in mg/L), E. coli DH5α/pLBII-CTX-M15, engineered strain producing CTX-M15
[5] = system: K. pneumoniae 848844; assay: microbe, parasite or virus in culture; assay type: cell-based, Klebsiella pneumoniae; details: Klebsiella pneumoniae; K. pneumoniae 848844 producing SHV-11 and KPC-2; read-out: MIC K. pneumoniae 848844
Method in brief: as §3

[6] = system: A. baumannii ATCC 19606; assay: Broth microdilution MIC, A. baumannii ATCC 19606; assay type: cell-based; details: Acinetobacter baumannii
Experimental: as §1, §2

[7] = system: E. coli ATCC 25922; assay: Broth microdilution MIC, E. coli ATCC 25922; assay type: cell-based; details: Escherichia coli
Method in brief: as §3

[8] = molecular target: E. coli PBP3 (Escherichia coli (strain K12), UniProt P0AD68); assay: E. coli PBP3 Bocillin-FL fluorescence polarization competition binding assay
Chain of E. coli PBP3 (P0AD68 whole entry): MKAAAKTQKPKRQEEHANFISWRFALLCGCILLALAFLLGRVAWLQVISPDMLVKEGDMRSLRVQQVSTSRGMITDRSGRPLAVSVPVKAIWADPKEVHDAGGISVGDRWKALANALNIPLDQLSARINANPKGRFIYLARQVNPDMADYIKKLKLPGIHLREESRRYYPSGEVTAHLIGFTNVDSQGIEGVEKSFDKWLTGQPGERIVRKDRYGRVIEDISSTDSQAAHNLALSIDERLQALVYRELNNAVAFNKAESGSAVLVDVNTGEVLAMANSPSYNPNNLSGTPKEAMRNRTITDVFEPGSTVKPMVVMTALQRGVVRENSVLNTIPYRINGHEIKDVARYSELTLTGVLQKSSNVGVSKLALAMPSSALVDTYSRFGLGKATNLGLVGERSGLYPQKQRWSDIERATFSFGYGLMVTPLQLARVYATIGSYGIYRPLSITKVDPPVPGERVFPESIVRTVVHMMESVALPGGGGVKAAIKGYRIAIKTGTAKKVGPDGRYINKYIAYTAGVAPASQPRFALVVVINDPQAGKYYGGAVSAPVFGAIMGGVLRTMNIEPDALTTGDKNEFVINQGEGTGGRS
Method in brief: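 FP competition: 1.5 μM PBP, 0.1 μM Bocillin-FL, cpd 0–1000 μM; 50 mM Hepes pH 8.0/300 mM NaCl/5% glycerol. Read 490/520 nm immediately after Bocillin-FL addition, 60 min. EC50 = cpd conc. lowering probe binding.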

[9] = system: K. pneumoniae UMM; assay: microbe, parasite or virus in culture; assay type: cell-based; details: Klebsiella pneumoniae; K. pneumoniae UMM producing SHV-5 and KPC-2; read-out: MIC K. pneumoniae UMM
Method in brief: as §3

[10] = system: E. coli AG100A; assay: microbe, parasite or virus in culture; assay type: cell-based; details: Escherichia coli, read-out: MIC E. coli AG100A
Method in brief: as §3

[11] = system: E. coli 901C; assay: microbe, parasite or virus in culture; assay type: cell-based; details: Escherichia coli; hyper-permeable E. coli 901C, broth microdilution; read-out: MIC E. coli 901C
Method in brief: as §3

[12] = system: E. coli D22; assay: microbe, parasite or virus in culture; assay type: cell-based; details: Escherichia coli; hyper-permeable E. coli D22, broth microdilution; read-out: MIC E. coli D22
Method in brief: as §3

[13] = system: K. pneumoniae SI-117; assay: microbe, parasite or virus in culture; assay type: cell-based; details: Klebsiella pneumoniae, SI117, read-out: MIC K. pneumoniae SI-117
Method in brief: as §3

[14] = system: E. coli AG100; assay: Broth microdilution MIC, E. coli AG100 (wild-type parent); assay type: cell-based; details: Escherichia coli; wild-type parent E. coli AG100, broth microdilution; read-out: MIC E. coli AG100
Method in brief: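 Starting inoculum of 5×10^5 CFU/mL, from colonies grown 3-5 h in Mueller-Hinton broth with divalent cations, added to two-fold compound dilution series.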

[15] = PAO1, read-out: MIC P. aeruginosa PAO1
[16] = ATCC19606, A. baumannii ATCC 19606, broth microdilution, read-out: MIC A. baumannii ATCC 19606
[17] = P. aeruginosa PAO1, broth microdilution, read-out: MIC P. aeruginosa PAO1
[18] = ATCC25922, E. coli ATCC 25922, broth microdilution, read-out: MIC E. coli 25922

Row | SMILES | MIC [1, 15] | MIC [2] | MIC [3] | MIC [4] | MIC [5] | MIC [6, 16] | MIC [1, 17] | MIC [7, 18] | EC50 [8] | MIC [9] | MIC [10] | MIC [11] | MIC [12] | MIC [13] | MIC [14] | MIC ([6]; ATCC19606, read-out: MIC A. baumannii ATCC 19606) | MIC ([7]; ATCC25922, read-out: MIC E. coli 25922) | EC50 ([8]; fluorescence polarization competition binding with Bocillin-FL, read-out: E. coli K12 PBP3 Potency)
1 | CCN1CCN(C(=O)NC(C(=O)N[C@H]2Cc3cccc(C(=O)O)c3OB2O)c2ccc(OC)nc2Cl)C(=O)C1=O (stereo partly drawn) [Example 65, (3R)-3-(2-(2-chloro-6-methoxypyridin-3-yl)-2-(4-ethyl-2,3-dioxopiperazine-1-carboxamido)acetamido)-2-hydroxy-3,4-dihydro-2H-benzo[e][1,2]oxaborinine-8-carboxylic acid] | > 128 µg/mL | 32 to 64 µg/mL | 8 to 16 µg/mL | 128 to 256 mg/L (≈ 223 to 446 µM) | – | – | – | – | – | – | – | – | – | – | – | – | – | –
2 | CCN1CCN(C(=O)NC(C(=O)N[C@H]2Cc3ccc(F)c(C(=O)O)c3OB2O)c2ccc(O)cn2)C(=O)C1=O (stereo partly drawn) [Example 128, (3R)-3-(2-(4-ethyl-2,3-dioxopiperazine-1-carboxamido)-2-(5-hydroxypyridin-2-yl)acetamido)-7-fluoro-2-hydroxy-3,4-dihydro-2H-benzo[e][1,2]oxaborinine-8-carboxylic acid] | – | 8 to 16 µg/mL | 0.5 to 1 µg/mL | – | 32 to 64 µg/mL | > 128 µg/mL | > 128 µg/mL | 32 to 64 µg/mL | 30 to 500 µM | 8 to 16 µg/mL | 2 to 4 µg/mL | 0.5 to 1 µg/mL | 2 to 4 µg/mL | 8 to 16 µg/mL | 8 to 16 µg/mL | – | – | –
3 | CCN1CCN(C(=O)N[C@@H](C(=O)N[C@H]2Cc3cccc(C(=O)O)c3OB2O)c2ccc(S(N)(=O)=O)c(OC)c2)C(=O)C1=O [Example 169, (R)-3-((R)-2-(4-ethyl-2,3-dioxopiperazine-1-carboxamido)-2-(3-methoxy-4-sulfamoylphenyl)acetamido)-2-hydroxy-3,4-dihydro-2H-benzo[e][1,2]oxaborinine-8-carboxylic acid] | – | 8 to 16 µg/mL | 0.5 to 1 µg/mL | – | > 128 µg/mL | > 128 µg/mL | > 128 µg/mL | 32 to 64 µg/mL | 30 to 500 µM | > 128 µg/mL | 8 to 16 µg/mL | < 0.25 µg/mL | 2 to 4 µg/mL | > 128 µg/mL | 32 to 64 µg/mL | – | – | –
4 | NS(=O)(=O)c1ccc([C@@H](NC(=O)N2CCN(CCBr)C(=O)C2=O)C(=O)N[C@H]2Cc3cccc(C(=O)O)c3OB2O)cc1O [Example 172, (R)-3-((R)-2-(4-(2-bromoethyl)-2,3-dioxopiperazine-1-carboxamido)-2-(3-hydroxy-4-sulfamoylphenyl)acetamido)-2-hydroxy-3,4-dihydro-2H-benzo[e][1,2]oxaborinine-8-carboxylic acid] | > 128 µg/mL | 2 to 4 µg/mL | < 0.25 µg/mL | – | > 128 µg/mL | – | – | – | – | 32 to 64 µg/mL | 8 to 16 µg/mL | 0.5 to 1 µg/mL | 8 to 16 µg/mL | > 128 µg/mL | 32 to 64 µg/mL | > 128 µg/mL | 32 to 64 µg/mL | < 30 µM
